Assay results published in paper PMC9112895, “Selective Inhibition of Plasmodium falciparum ATPase 6 by Artemisinins and Identification of New Classes of Inhibitors after Expression in Yeast” (Antimicrobial Agents and Chemotherapy, 2022).

How the values were obtained:
L263E PfATP6 = target: T1, L263E PfATP6 (Plasmodium falciparum, UniProt Q08853, L263E); assay: Yeast whole-cell assay, PfATP6 L263E mutant; format: cell-based; conditions: L263 mutant; read-out: IC50 (mean ± SD)
T1 construct: expressed in transfected cells; host or cells: Saccharomyces cerevisiae K667-derived strain
T1 sequence (Q08853 1-1228 L263E): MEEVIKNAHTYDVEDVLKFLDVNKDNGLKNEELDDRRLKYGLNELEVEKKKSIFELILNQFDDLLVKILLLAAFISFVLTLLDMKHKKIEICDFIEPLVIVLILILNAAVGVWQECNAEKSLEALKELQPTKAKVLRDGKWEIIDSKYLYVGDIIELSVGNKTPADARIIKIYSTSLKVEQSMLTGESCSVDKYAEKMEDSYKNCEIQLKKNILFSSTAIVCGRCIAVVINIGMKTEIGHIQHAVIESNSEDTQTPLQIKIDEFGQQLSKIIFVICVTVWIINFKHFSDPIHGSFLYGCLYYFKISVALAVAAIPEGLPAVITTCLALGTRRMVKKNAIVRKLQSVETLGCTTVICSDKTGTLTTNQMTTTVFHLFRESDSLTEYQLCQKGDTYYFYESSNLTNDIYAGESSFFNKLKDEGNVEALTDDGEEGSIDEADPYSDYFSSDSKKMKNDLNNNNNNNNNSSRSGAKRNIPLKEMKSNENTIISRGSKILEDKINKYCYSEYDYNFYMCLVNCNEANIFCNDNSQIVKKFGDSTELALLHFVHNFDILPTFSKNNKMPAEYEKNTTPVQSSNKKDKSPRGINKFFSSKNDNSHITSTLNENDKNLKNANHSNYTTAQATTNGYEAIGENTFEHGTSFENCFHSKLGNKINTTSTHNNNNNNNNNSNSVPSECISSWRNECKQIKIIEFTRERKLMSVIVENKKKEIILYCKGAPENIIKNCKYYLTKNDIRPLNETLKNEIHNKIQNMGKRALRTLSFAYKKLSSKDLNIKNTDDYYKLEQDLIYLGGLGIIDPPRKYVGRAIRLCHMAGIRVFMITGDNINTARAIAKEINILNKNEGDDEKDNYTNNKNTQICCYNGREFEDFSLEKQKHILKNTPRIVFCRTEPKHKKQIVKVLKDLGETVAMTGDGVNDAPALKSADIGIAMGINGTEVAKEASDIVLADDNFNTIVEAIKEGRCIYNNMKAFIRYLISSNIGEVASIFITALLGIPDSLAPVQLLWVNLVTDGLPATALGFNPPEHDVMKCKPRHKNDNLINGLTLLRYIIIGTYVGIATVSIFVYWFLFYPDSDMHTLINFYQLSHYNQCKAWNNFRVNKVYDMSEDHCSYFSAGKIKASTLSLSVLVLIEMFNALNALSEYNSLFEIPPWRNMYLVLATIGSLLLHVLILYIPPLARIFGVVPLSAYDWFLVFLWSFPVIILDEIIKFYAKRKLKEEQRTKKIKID
Method: Yeast transformations were performed using the method described by Gietz and Schiestl ([48]), and transformants were selected by an uracil auxotrophic marker. Transformations were confirmed by colony PCR. Both K667 and K667Δpdr5::HIS were transformed with the following plasmids: pUGpd plasmid as a vector-only control (derived from pRS316 [49]); br434 plasmid (derived from pRS316 [50]) containing the SERCA1a coding region from rabbit skeletal fast-twitch muscle (pbr434-SERCA1a); and pUGpd containing the yeast-optimized coding region of PfATP6 from Plasmodium falciparum (pUGpd-PfATP6). Site-directed mutagenesis was performed on the SERCA1a coding region to produce the mutation E255L in the protein. Mutations were also introduced into the PfATP6 coding region to produce mutations L263E, A623E, and S769N and the double mutation A623E/S769N ([13]).
The screening assay used here was developed from the protocol used by Pulcini et al. ([13]). […] The optimal calcium concentration was periodically monitored and, if necessary, adjusted using a calcium concentration range of 10 to 30 mM. […] The yeast growth was estimated from the absorbance at 620 nm in a Tecan plate reader. […] The data collected were analyzed using GraphPad Prism v9.0 (GraphPad software, San Diego, CA, U.S.A).

SERCA1a = SERCA1a (Oryctolagus cuniculus, UniProt P04191); assay: In vitro activity assay, SERCA1a (membrane-bound); format: biochemical, rabbit; set-up: containing the SERCA1a coding region from rabbit skeletal fast-twitch muscle; expressed in transfected cells; conditions: parallel in vitro activity assay, 100 µM (Fig. S1D)
SERCA1a, sequence (P04191 other isoform, or with tags, fused parts or gaps): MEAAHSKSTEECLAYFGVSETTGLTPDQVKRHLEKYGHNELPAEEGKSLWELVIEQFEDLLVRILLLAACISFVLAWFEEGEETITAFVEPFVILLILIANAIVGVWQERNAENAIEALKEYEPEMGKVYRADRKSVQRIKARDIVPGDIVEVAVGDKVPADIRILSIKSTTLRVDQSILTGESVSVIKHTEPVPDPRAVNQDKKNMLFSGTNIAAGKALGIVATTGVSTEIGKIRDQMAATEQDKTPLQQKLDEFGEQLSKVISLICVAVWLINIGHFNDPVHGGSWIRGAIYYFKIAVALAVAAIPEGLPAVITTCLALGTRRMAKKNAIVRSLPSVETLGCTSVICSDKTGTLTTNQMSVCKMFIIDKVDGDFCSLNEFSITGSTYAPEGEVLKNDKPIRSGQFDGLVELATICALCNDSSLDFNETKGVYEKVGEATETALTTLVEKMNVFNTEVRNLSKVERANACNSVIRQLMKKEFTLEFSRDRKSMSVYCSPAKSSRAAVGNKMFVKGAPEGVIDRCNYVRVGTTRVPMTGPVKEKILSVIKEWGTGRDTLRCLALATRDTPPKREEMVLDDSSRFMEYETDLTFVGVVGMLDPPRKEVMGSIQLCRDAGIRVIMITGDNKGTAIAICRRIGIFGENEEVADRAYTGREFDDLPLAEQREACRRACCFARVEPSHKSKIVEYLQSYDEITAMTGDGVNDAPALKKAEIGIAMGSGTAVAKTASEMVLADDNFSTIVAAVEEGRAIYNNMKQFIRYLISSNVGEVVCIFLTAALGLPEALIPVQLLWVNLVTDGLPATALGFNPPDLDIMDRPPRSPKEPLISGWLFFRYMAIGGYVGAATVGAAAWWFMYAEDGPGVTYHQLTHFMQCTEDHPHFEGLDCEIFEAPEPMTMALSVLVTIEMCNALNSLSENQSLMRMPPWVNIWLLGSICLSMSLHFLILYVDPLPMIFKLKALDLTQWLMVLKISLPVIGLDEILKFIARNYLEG
Method: Activity assays were performed as described by Longland et al. ([55]) and LeBel et al. ([56]), except that the reaction mixtures were incubated at 30°C instead of 37°C. […] Then, 5.8 mM ATP was added and incubated for an additional 15 min at 30°C. The reaction was stopped with 0.5 mL 6.5% trichloroacetic acid (TCA) on ice, and the mixture was centrifuged at 4°C for 10 min at 16,000 × g; 0.5 mL of the supernatant was added to 1.5 mL of copper acetate buffer (0.25% copper sulfate pentahydrate, 4.6% sodium acetate trihydrate, dissolved in 2 M acetic acid [pH 4.0]) and mixed by vortex-mixing before the addition of 0.25 mL of 5% ammonium molybdate, followed by 0.25 mL METOL buffer (2% p-methyl-aminophenol sulfate, 5% sodium sulfite). Samples were incubated for 10 min, and the absorbance was measured at 870 nm in a spectrophotometer. The Pi standard was 0.4387 g/100 mL KH2PO4.

CC(=O)C1=C(O)[C@@H]2[C@H]3c4c[nH]c5cccc(c45)C[C@H]3C(C)(C)N2C1=O [CPA, cyclopiazonic acid]
IC50 (L263E PfATP6): 5.21 µM
inhibition of purified SERCA1a activity (SERCA1a): apparent inhibition
